Test results taken from ChEMBL document CHEMBL1131725, “Uridine phosphorylase inhibitors: chemical modification of benzyloxybenzyl-barbituric acid and its effects on urdpase inhibition” (Bioorg Med Chem Lett, 1999).

Test: Inhibitory effect on human liver uridine phosphorylase

Row | SMILES | Ki [µM]
1 | O=C1NC(=S)NC(=O)C1Cc1cccc(OCc2ccccc2)c1 | 3.7
2 | O=C1NC(=O)C(Cc2ccccc2OCc2ccccc2)C(=O)N1 | 41.8
3 | O=C1NC(=O)C(Cc2cccc(OCc3ccccc3)c2)C(=O)N1 | 2.3
4 | O=C1NC(=O)C(Cc2ccc(OCc3ccccc3)cc2)C(=O)N1 | 118
